Results taken from the supplement of paper PMC5908809.

Columns and labels:
[1] = system: normal NK cells expanded with K562-aAPC; assay: percent inhibition of viability; higher = more inhibition; conditions: 72 h, IL-2 2.5 ng/mL
Procedure: (§1)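 Drug sensitivity and resistance testing on K562-aAPC-expanded normal NK cells: 5 concentrations (10-fold steps over a 10,000-fold range), 72 h at 37 °C, viability by CellTiter-Glo normalised to DMSO and benzethonium chloride controls; DSS from the fitted curve.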

DERL-7 (IL-2 2.5 ng/mL) [2] = assay: as above; conditions: 72 h
IMC-1 (IL-2 20 ng/mL) [3] = assay: as above; conditions: 72 h
KAI3 (IL-2 2.5 ng/mL) [4] = assay: as above; conditions: 72 h
KHYG-1 (IL-2 2.5 ng/mL) [5] = assay: as above; conditions: 72 h
NK-92 (IL-2 2.5 ng/mL) [6] = assay: as above; conditions: 72 h
NK-YS (IL-2 2.5 ng/mL) [7] = assay: as above; conditions: 72 h
NKL (IL-2 2.5 ng/mL) [8] = assay: as above; conditions: 72 h
SNK-6 (IL-2 2.5 ng/mL) [9] = assay: as above; conditions: 72 h
YT (IL-2 2.5 ng/mL) [10] = assay: as above; conditions: 72 h
[11] = system: normal primary NK cells, pool 1 (3 donors) (IL-2 2.5 ng/mL); assay: as above; conditions: 72 h
[12] = system: normal primary NK cells, pool 1 (3 donors), resting (IL-2 0 ng/mL); assay: as above; conditions: 72 h
[13] = system: normal primary NK cells, pool 2 (3 donors) (IL-2 2.5 ng/mL); assay: as above; conditions: 72 h
[14] = system: normal primary NK cells, pool 3 (3 donors) (IL-2 2.5 ng/mL); assay: as above; conditions: 72 h
[15] = system: normal NK cells expanded with K562-aAPC; assay: drug sensitivity score (DSS) (DSS units); higher = more sensitive; extreme values may be limits of the assay; conditions: 72 h; IL-2 2.5 ng/mL
Procedure: as §1

DERL-7 (IL-2 2.5 ng/mL) [16] = assay: as above; conditions: 72 h
IMC-1 (IL-2 20 ng/mL) [17] = assay: as above; conditions: 72 h
KAI3 (IL-2 2.5 ng/mL) [18] = assay: as above; conditions: 72 h
KHYG-1 (IL-2 2.5 ng/mL) [19] = assay: as above; conditions: 72 h
NK-92 (IL-2 2.5 ng/mL) [20] = assay: as above; conditions: 72 h
NK-YS (IL-2 2.5 ng/mL) [21] = assay: as above; conditions: 72 h
NKL (IL-2 2.5 ng/mL) [22] = assay: as above; conditions: 72 h
SNK-6 (IL-2 2.5 ng/mL) [23] = assay: as above; conditions: 72 h
YT (IL-2 2.5 ng/mL) [24] = assay: as above; conditions: 72 h
[25] = system: normal primary NK cells, pool 1 (3 donors) (IL-2 2.5 ng/mL); assay: as above; conditions: 72 h
[26] = system: normal primary NK cells, pool 1 (3 donors), resting (IL-2 0 ng/mL); assay: as above; conditions: 72 h
[27] = system: normal primary NK cells, pool 2 (3 donors) (IL-2 2.5 ng/mL); assay: as above; conditions: 72 h
[28] = system: normal primary NK cells, pool 3 (3 donors) (IL-2 2.5 ng/mL); assay: as above; conditions: 72 h

Cc1cnc(NC(=O)Nc2cc(Br)c(C)cc2OC[C@@H]2CNCCO2)cn1 [Rabusertib] (max concentration tested 1000 nM)
percent inhibition of viability [%]
Conditions | 0.1 nM | 1 nM | 10 nM | 100 nM | 1000 nM
DERL-7 (IL-2 2.5 ng/mL) [2] | 5.67 | 5.69 | 4.81 | 4.56 | 33.5
IMC-1 (IL-2 20 ng/mL) [3] | -3.74 | -1.84 | 2.04 | 1.67 | 9.87
KAI3 (IL-2 2.5 ng/mL) [4] | -0.28 | -3.83 | 3.9 | 11.6 | 81
KHYG-1 (IL-2 2.5 ng/mL) [5] | 3.66 | 7.68 | 5.93 | 14.9 | 103
NK-92 (IL-2 2.5 ng/mL) [6] | -4.77 | 4.85 | 16 | 18.2 | 86.9
NK-YS (IL-2 2.5 ng/mL) [7] | 1.16 | 1.34 | 0.68 | 3.22 | 65.2
NKL (IL-2 2.5 ng/mL) [8] | -16.6 | 0.3 | -1.09 | 14 | 86.2
SNK-6 (IL-2 2.5 ng/mL) [9] | 11.6 | 6.32 | 2.12 | 11.8 | 62.8
YT (IL-2 2.5 ng/mL) [10] | -0.82 | -0.63 | 1.16 | -2 | 11
[1] | 4.2 | -1.61 | 0.16 | 13.5 | 55.7
[11] | -1.58 | -1.28 | -6.24 | -18 | -4.02
[12] | 5.84 | -6.29 | 4.9 | -19.1 | -1.65
[13] | -8.45 | 5.23 | 3.94 | 0.79 | 15.8
[14] | -20.8 | -8.02 | 3.37 | -3.4 | 8.17

Conditions | drug sensitivity score
DERL-7 (IL-2 2.5 ng/mL) [16] | 2.31
IMC-1 (IL-2 20 ng/mL) [17] | 0
KAI3 (IL-2 2.5 ng/mL) [18] | 6.43
KHYG-1 (IL-2 2.5 ng/mL) [19] | 8.07
NK-92 (IL-2 2.5 ng/mL) [20] | 7.67
NK-YS (IL-2 2.5 ng/mL) [21] | 4.02
NKL (IL-2 2.5 ng/mL) [22] | 7.11
SNK-6 (IL-2 2.5 ng/mL) [23] | 5.37
YT (IL-2 2.5 ng/mL) [24] | 0
[15] | 5.12
[25] | 0
[26] | 0
[27] | 0.35
[28] | 0

Cc1sc2c(c1C)C(c1ccc(Cl)cc1)=N[C@@H](CC(=O)Nc1ccc(O)cc1)c1nnc(C)n1-2 [OTX015] (max concentration tested 10000 nM)
percent inhibition of viability [%]
Conditions | 1 nM | 10 nM | 100 nM | 1000 nM | 10000 nM
DERL-7 (IL-2 2.5 ng/mL) [2] | 1.92 | 24 | 62 | 95.8 | 100
IMC-1 (IL-2 20 ng/mL) [3] | -7.07 | -8.73 | 1.26 | 73.2 | 97.4
KAI3 (IL-2 2.5 ng/mL) [4] | 3.12 | -12.4 | 6.28 | 43.9 | 56.6
KHYG-1 (IL-2 2.5 ng/mL) [5] | -1.24 | -0.67 | 38.7 | 91 | 106
NK-92 (IL-2 2.5 ng/mL) [6] | -10.2 | -31 | -32.9 | 22.6 | 36.9
NK-YS (IL-2 2.5 ng/mL) [7] | -0.13 | 1.91 | 28.4 | 62.4 | 81.9
NKL (IL-2 2.5 ng/mL) [8] | 6.07 | 1.36 | 45.3 | 69.8 | 73.4
SNK-6 (IL-2 2.5 ng/mL) [9] | 15.4 | 3.9 | 54.7 | 66.5 | 49.5
YT (IL-2 2.5 ng/mL) [10] | -1.39 | -5.05 | 12.7 | 50.1 | 56.8
[1] | -2.53 | -1.01 | 4.29 | 35.6 | 59.9
[11] | -1.64 | 12.5 | 32.6 | 59.5 | 80.1
[12] | -3.45 | 11.8 | 18.6 | 34.9 | 49.6
[13] | -6.93 | 6.42 | 15.3 | 54.1 | 76.5
[14] | -1.79 | 8.04 | 9.85 | 28.3 | 57.8

Conditions | drug sensitivity score
DERL-7 (IL-2 2.5 ng/mL) [16] | 26.7
IMC-1 (IL-2 20 ng/mL) [17] | 13.8
KAI3 (IL-2 2.5 ng/mL) [18] | 8.88
KHYG-1 (IL-2 2.5 ng/mL) [19] | 21.6
NK-92 (IL-2 2.5 ng/mL) [20] | 4.42
NK-YS (IL-2 2.5 ng/mL) [21] | 15.2
NKL (IL-2 2.5 ng/mL) [22] | 18.9
SNK-6 (IL-2 2.5 ng/mL) [23] | 19.3
YT (IL-2 2.5 ng/mL) [24] | 10.8
[15] | 7.54
[25] | 15.7
[26] | 8.82
[27] | 12.1
[28] | 6.65
